Test results as given in ChEMBL document CHEMBL1201862, “PubChem BioAssay data set” (2004).
Calls of active or inactive are those of the source.

How the values were obtained:
Caspase-6 = target: T1, Caspase-6 (Homo sapiens, UniProt P55212); experiment: human caspase-6 inhibitors, dose response, biochemical, VEID-R110 fluorescence, cherry-pick (AID 720632)
T1 sequence (P55212 whole entry): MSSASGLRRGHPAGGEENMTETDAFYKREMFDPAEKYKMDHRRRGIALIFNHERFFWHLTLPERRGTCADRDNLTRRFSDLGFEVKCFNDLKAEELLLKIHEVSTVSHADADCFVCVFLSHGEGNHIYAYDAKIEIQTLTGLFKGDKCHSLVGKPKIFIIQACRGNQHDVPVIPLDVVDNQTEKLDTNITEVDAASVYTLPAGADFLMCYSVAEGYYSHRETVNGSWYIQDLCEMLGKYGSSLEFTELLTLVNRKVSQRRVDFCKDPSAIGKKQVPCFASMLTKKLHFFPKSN

[1] = ARNT/TACC3 interaction disruptors, potency, confirmation, biochemical, AlphaScreen, cherry-picked samples (AID 651703); format: functional, Homo sapiens;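 note: His-tagged ARNT PAS-B domain paired with GST-TACC3 E629A dimer coactivator fragment; potency of inhibitors that break up the complex and lower AlphaScreen signal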
[2] = target: T2, Methionyl-tRNA synthetase, putative (Trypanosoma brucei brucei, UniProt Q38C91); format: functional, Trypanosoma brucei brucei strain 927/4 GUTat10.1
T2 sequence (Q38C91 whole entry): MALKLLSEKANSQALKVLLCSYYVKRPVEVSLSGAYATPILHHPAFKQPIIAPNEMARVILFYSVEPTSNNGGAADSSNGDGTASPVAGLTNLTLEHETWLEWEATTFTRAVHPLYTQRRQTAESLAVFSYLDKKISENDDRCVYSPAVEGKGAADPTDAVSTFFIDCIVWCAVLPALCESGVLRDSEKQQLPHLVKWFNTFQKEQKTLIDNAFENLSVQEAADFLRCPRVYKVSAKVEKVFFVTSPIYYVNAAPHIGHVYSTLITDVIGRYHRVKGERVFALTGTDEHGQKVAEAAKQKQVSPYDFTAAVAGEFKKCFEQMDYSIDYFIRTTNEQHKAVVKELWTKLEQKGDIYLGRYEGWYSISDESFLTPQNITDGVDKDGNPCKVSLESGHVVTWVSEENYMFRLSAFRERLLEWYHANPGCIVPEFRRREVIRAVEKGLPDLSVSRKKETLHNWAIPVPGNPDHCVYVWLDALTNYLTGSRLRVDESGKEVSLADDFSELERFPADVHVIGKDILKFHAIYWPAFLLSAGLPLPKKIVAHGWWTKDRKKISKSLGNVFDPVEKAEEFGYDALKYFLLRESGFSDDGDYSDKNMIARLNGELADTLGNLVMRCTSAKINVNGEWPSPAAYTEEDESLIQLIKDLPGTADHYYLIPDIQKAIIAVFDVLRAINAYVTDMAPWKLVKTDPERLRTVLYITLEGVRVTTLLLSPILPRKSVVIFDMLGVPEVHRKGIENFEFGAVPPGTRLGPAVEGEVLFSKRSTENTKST

[3] = target: T2, Methionyl-tRNA synthetase, putative; format: functional, Trypanosoma brucei brucei strain 927/4 GUTat10.1; remark: listed apart in the source
[4] = Counterscreen for inhibitors of Trypanosoma brucei methionyl tRNA synthetase (MetRS): Luminescence-based cell-based high throughput dose response assay to identify compounds that are cytotoxic to Jurkat human T lymphocyte cells.; format: functional
[5] = target: Long-chain-fatty-acid--AMP ligase FadD28 (Mycobacterium tuberculosis, UniProt P9WQ59); experiment: Fluorescence polarization aasay to screen for inhibitors that compete for the binding of FadD28 to a bisubstrate Measured in Biochemical System Using Plate Reader - 2147-01_Inhibitor_Dose_CherryPick_Activity.; format: functional, Mycobacterium tuberculosis H37Rv
Sequence of Long-chain-fatty-acid--AMP ligase FadD28 (P9WQ59 whole entry): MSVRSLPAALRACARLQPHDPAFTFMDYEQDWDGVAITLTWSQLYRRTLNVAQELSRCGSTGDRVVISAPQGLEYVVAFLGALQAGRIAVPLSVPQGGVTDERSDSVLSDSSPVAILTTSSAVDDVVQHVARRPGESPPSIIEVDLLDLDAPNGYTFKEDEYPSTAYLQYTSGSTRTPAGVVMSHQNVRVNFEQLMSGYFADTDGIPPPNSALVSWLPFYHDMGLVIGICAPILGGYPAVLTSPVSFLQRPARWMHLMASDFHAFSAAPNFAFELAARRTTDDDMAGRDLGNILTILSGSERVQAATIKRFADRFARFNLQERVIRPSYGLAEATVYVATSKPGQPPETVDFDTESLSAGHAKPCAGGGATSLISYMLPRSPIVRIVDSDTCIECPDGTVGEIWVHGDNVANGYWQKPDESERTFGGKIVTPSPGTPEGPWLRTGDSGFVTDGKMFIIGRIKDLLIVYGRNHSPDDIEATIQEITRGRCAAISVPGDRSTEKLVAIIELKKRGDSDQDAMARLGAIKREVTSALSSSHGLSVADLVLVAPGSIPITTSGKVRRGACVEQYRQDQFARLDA

Beta-galactosidase = Beta-galactosidase (Escherichia coli, UniProt Q8VNN2); experiment: Dose response counterscreen for EBI2 assay utilizing the enzyme, b-galactosidase.; format: functional
Sequence of Beta-galactosidase (Q8VNN2 whole entry): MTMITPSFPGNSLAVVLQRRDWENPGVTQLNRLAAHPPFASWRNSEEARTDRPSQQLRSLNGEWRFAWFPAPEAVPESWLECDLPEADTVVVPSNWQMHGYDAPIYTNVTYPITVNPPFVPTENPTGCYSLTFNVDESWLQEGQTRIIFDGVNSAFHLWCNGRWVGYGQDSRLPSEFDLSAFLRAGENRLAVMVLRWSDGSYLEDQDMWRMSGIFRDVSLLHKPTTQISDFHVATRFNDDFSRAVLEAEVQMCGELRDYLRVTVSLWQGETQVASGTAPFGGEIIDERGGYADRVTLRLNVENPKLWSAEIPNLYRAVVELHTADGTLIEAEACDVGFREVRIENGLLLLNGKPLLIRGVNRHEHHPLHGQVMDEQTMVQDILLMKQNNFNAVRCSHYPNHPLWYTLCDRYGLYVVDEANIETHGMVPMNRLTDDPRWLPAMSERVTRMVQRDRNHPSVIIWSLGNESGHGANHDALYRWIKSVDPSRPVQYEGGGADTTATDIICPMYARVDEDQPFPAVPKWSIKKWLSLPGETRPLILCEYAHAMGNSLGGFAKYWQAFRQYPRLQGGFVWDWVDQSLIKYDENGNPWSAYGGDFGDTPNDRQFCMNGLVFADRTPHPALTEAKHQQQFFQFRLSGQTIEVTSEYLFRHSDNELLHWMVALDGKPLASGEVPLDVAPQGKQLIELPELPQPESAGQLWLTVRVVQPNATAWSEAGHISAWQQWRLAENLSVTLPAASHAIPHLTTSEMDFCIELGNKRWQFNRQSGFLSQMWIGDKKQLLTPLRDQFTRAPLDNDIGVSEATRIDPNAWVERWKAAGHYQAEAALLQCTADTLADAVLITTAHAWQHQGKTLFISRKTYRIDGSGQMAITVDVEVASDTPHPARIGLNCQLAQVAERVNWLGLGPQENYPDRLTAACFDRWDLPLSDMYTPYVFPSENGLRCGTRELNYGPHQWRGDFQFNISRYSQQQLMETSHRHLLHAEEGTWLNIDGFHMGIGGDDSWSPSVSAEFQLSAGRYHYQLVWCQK

[6] = HEK293T cell cytotoxicity, dose response, cytotoxicity control for HIV Vif inhibitor project, cherry-picks (AID 652208); format: functional, cell-based
[7] = target: G-protein coupled receptor 55 (Homo sapiens, UniProt Q9Y2T6); experiment: GPR55 antagonists blocking LPI-driven arrestin recruitment, primary screen, imaging, U2OS, beta-arrestin-GFP, LPI agonist (AID 2013); format: functional;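 note: antagonist potency measured as reduced agonist-driven arrestin aggregation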
Sequence of G-protein coupled receptor 55 (Q9Y2T6 whole entry): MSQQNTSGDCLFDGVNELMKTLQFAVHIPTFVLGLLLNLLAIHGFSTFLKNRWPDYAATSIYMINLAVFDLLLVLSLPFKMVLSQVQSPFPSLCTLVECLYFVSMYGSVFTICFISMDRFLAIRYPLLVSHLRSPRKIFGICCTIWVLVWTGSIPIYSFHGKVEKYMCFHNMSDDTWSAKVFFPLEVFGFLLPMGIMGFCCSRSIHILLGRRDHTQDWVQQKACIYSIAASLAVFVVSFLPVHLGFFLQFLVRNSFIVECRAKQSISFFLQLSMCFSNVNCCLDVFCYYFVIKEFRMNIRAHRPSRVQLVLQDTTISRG

[8] = target: Matrix metalloproteinase-14 (Homo sapiens, UniProt P50281); experiment: Dose Response confirmation of uHTS hits for a small molecule inhibitors of MT1-MMP activation in a fluorescence assay set 1.; format: functional
[9] = HT1080 parental cell cytotoxicity, dose response, cytotoxicity control for MT1-MMP activation inhibitor project, ATPLite luminescence, set 1 (AID 652252); format: functional
[10] = MC4R antagonists, dose response, counter-screen for LGR2 antagonist project, cell-based, plate reader, cherry pick (AID 743444); format: functional;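 note: transfected HEK 293 cells stimulated with alpha-MSH peptide; potency of inhibitors of the alpha-MSH evoked signal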
cells = format: functional, cell-based
[11] = system: Streptococcus sp. 'group A'; experiment: growth inhibition of control SK(-) GAS strain, dose response, counter-screen for streptokinase expression inhibitor project, luminescence, kanamycin, BacTiterGlo, confirmation (AID 1900); format: functional, organism-based
[12] = A549 cell cytotoxicity, dose response, cytotoxicity control, plate reader, cherry-pick, antagonist series (AID 743412); format: functional, cell-based
[13] = target: Latent membrane protein 1 (Human herpesvirus 4 (strain B95-8), UniProt P03230); experiment: TES1-eGFP NF-kB reporter inhibition versus Tet-On dsRED, dose response, selectivity assay for LMP1 NF-kB inhibitor project, imaging, HEK293T, dual-color eGFP/dsRED, cherry-picks (AID 588398); format: functional, cell-based
Sequence of Latent membrane protein 1 (P03230 whole entry): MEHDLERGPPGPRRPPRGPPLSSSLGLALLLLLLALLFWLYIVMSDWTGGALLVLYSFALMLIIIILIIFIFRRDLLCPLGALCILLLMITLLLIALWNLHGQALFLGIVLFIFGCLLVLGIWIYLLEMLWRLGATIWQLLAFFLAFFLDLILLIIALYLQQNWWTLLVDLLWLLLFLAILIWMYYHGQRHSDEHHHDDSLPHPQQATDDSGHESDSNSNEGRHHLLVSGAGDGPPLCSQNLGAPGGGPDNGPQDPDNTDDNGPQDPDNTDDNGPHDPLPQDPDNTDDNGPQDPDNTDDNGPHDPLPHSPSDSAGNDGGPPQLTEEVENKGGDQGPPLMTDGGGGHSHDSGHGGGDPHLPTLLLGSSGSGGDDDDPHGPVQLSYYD

Streptococcus = experiment: Group A Streptococcus viability loss, dose response, counter-screen for streptokinase expression inhibitor project, luminescence, BacTiterGlo (AID 1915); format: functional, organism-based;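 note: potency for reduction of bacterial viability or growth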
[14] = target: T3, Nuclear receptor subfamily 0 group B member 1 (Homo sapiens, UniProt P51843); format: functional, cell-based;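 note: HEK293T cells transfected with SF-1 and DAX-1 plus StAR promoter luciferase reporter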
T3 sequence (P51843 whole entry): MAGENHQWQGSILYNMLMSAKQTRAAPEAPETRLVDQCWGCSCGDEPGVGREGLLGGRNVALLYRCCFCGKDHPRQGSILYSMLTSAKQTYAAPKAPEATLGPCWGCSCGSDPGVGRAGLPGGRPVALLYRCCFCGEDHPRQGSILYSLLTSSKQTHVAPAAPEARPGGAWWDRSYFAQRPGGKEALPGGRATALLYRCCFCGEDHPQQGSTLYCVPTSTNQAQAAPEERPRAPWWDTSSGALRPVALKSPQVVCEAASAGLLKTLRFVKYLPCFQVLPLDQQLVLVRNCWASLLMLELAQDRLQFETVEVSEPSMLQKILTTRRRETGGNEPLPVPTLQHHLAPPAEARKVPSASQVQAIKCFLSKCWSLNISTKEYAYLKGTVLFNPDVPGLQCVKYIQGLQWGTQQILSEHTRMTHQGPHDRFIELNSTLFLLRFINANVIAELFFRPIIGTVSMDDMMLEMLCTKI

[15] = HepG2 cell cytotoxicity, dose response, cytotoxicity control, plate reader, cherry-pick, antagonist series (AID 743416); format: functional, cell-based
HEK293 = experiment: inhibitors of LMP1-driven NF-kB reporter, dose response, cell-based, HEK293, luciferase, cherry-pick (AID 588343); format: functional; settings: Homo sapiens
[16] = HEK293 cell cytotoxicity, dose response, cytotoxicity control, plate reader, cherry-picked samples (AID 743446); format: functional, cell-based
[17] = LGR2 antagonists, dose response, cell-based, HEK293, CRE-luciferase reporter, cherry pick, set 2 (AID 743343); format: functional;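 note: transfected cells were stimulated with diluted bursicon conditioned medium after compound addition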
[18] = target: Adenosylmethionine-8-amino-7-oxononanoate aminotransferase (Mycobacterium tuberculosis, UniProt P9WQ81); experiment: Mycobacterium tuberculosis BioA enzyme inhibitor Measured in Biochemical System Using Plate Reader - 2163-02_Inhibitor_Dose_CherryPick_Activity.; format: functional, Mycobacterium tuberculosis UT205
Sequence of Adenosylmethionine-8-amino-7-oxononanoate aminotransferase (P9WQ81 whole entry): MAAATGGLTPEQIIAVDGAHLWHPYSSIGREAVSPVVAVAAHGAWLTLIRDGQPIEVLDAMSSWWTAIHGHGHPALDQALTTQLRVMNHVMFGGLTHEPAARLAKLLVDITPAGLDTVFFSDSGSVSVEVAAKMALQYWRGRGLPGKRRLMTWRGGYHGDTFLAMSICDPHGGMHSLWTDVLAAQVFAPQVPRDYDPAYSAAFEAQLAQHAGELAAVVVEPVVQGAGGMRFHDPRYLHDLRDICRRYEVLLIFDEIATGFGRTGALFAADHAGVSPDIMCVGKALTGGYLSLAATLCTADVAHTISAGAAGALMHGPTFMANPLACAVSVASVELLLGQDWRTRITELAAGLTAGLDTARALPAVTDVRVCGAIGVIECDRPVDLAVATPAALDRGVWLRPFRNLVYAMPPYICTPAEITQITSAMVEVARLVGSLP

[19] = intracellular Trypanosoma cruzi inhibitors in host cells – cell-based, plate reader, cherry-pick samples, set 3, dose response (AID 651818); format: functional;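 note: compounds incubated with infected cells for about four days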

With `Cc1ccc2[nH]c3c(c2c1)CCCC3NCCO` (centres undefined) the AC50 (Caspase-6) was 22.2 µM (active) and the AC50 [1] was 135 µM (active).

In the case of `COC(=O)CN1C(=S)N(c2ccc(Cl)cc2)C(=O)C1CC(=O)Nc1ccc(Cl)cc1` (centres undefined), the IC50 [2] is reported as 19.7 µM (inactive), the IC50 [3] is reported as 13.7 µM (inactive) and the IC50 [4] is reported as 83.3 µM (inactive).

For `O=C(N/N=C/c1c[nH]c2ccccc12)c1cc(Br)ccc1O`, the AC50 [5] was 7.18 µM (active).

For `O=C(c1ccc(-n2cccn2)cc1)N1CCN(c2ncccc2C(F)(F)F)CC1`, the IC50 (Beta-galactosidase) was > 80 µM (inactive).

With `CCCN1C(=O)/C(=C\C=C2\N(CC)c3ccccc3C2(C)C)SC1=S` the AC50 [6] was > 52 µM (inactive) and the IC50 [7] was 0.824 µM (active).

With `O=C(CF)NC(Nc1cccc2cccnc12)C(Cl)(Cl)Cl` (centres undefined) the IC50 [8] was 2.03 µM (active) and the IC50 [9] was > 10 µM (active).

For `COc1ccc(-c2cc3nc4n(c(=O)c3s2)CCC4)cc1`, the AC50 [10] was 2.65 µM (active), the IC50 (cells) was > 67.5 µM (inactive) and the EC50 [11] was 0.706 µM (active). For the same compound, the AC50 [12] was > 52 µM (inactive), the AC50 [13] was 28 µM (active) and the EC50 (Streptococcus) was 2.48 µM (active). The IC50 [14] was > 0.278 µM (active), the AC50 [15] was > 52 µM (inactive) and the AC50 (HEK293) was 1.48 µM (active). The AC50 [16] was 36.4 µM (active) and the AC50 [17] was 2.53 µM (active).

In the case of `O=C(COc1ccc2ccc(=O)oc2c1)Nc1cccnc1`, the AC50 [18] is reported as 13.6 µM (active).

In the case of `COc1ccc(NC(=O)Nc2ccc3c(c2)CC(=O)N([C@H](C)CO)C[C@H](C)[C@H](CN(C)Cc2ccc(C(=O)Nc4ccccc4N)cc2)O3)cc1`, the AC50 [19] is reported as 4.17 µM (active).
